Here are results for nine molecules from paper PMC8151276, “An Integrated Approach toward NanoBRET Tracers for Analysis of GPCR Ligand Engagement” (Molecules, 2021).

What all share (type): binding
For one assay, the target named is T1, PTGER3 (Homo sapiens, UniProt P43115).
T1 construct: purchased Promega (in-house HiBiT-GPCR construct library, NanoBRET)
T1 sequence (P43115 1-390): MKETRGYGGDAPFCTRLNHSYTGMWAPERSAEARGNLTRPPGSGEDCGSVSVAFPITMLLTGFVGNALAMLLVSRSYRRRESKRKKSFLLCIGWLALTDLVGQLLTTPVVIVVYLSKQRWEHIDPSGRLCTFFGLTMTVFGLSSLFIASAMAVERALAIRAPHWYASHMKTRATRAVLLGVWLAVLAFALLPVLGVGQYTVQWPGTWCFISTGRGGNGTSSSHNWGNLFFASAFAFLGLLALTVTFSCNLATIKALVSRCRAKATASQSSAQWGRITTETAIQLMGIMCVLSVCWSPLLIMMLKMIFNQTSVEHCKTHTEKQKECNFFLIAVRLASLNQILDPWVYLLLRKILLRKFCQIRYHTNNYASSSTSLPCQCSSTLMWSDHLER
Nature of the assay: NanoBRET screen HiBiT-PTGER3 in HEK293. How it is done:
(§1) Each tracer candidate was screened across the entire library of HiBiT-GPCR constructs using NanoBRET as the detection modality. As depicted in Figure 4A, the specificity of interactions was evaluated through decrease in BRET due to competitive displacement of a bound tracer by excess parental compound. Each tracer was analyzed for binding to each HiBiT-GPCR fusion in the absence and in the presence of competing parental compound. Briefly, HEK293 cells were transfected with HiBiT-GPCR constructs diluted into promoterless DNA to reduce expression and maximize translocation to the cell surface. Each tracer candidate was then screened at concentrations of 1 μM and 0.1 μM across cells expressing these fusions. Cells were treated for 1.5 h with tracer either alone or in the presence of 20 μM competing parental compound (i.e., control). BRET was measured upon addition of purified LgBiT and subsequent complementation with HiBiT genetically fused to a GPCR. The specificity of interactions was assessed through a decrease in BRET signal due to competitive displacement of the bound tracer. To further gauge the robustness of these interactions, the fold response over the control (i.e., BRETtracer/BRETcontrol) was calculated. We chose a 1.5-fold response, which translates to ≥7-fold signal over noise as the minimal threshold required to score an interaction as positive. […]. Below we highlight the screening results obtained for our exemplary fluorescent tracers based on Clozapine, Amitriptyline and AZD1283.
(§2) HiBiT-GPCR DNA constructs were diluted in 10 mM Tris pH 8 to a final concentration of 0.01 μg/μL, arrayed in 96-well plates and stored at −20 °C. For transfection, HEK293 cells were suspended in Opti-MEM (without phenol red) supplemented with 2% fetal bovine serum (Seradigm) and 100 units/mL penicillin–streptomycin (Gibco) at a final concentration of 220,000 cells/mL and dispensed into white 96-well plates at 90 μL/well. Subsequent transfections and screens were carried using an Agilent Bravo Automated Liquid Handling Platform. First, the 96-well HiBiT DNA arrays were diluted 25-fold in Opti-MEM (without serum or phenol red) to a final concentration of 0.0004 μg/μL and 20 μL of the diluted DNAs were transferred into new 96-well plates. Next, promoterless carrier DNA (1 μg/μL) was diluted 25-fold (0.04 μg/μL) and then dispensed into the diluted arrays at 20 μL/well. Following brief mixing, Viafect transfection reagent (Promega) diluted 16-fold into Opti-MEM was dispensed into the plates at 40 μL/well. After mixing by pipetting, plates were incubated for 10 min on the pipetting station deck. The DNA-transfection reagent complexes were then added to plates containing cells. To facilitate the screen, 10 μL of DNA-transfection reagent complexes were added in duplicates to the top 4 and bottom 4 rows, resulting in two identical 48-well arrays per plate. Plates with transfected cells were incubated for 18–20 h at 37 °C/5% CO2. A screen of each tracer across the entire library using two different concentrations requires duplicate plates of transfected cells. Depending on the number of tracers being screened, transfections can be scaled up using the same ratios. The next day, for each tracer, four 20× screening solutions in tracer dilution buffer (Promega) were prepared: two duplicates at final concentration of 20 μM and two duplicates at a final concentration of 2 μM. A competing unmodified compound was added to one of each duplicate at a final concentration of 400 μM. The four resulting solutions were diluted 4-fold in Opti-MEM without serum or phenol red to generate 5× solutions (5 µM and 0.5 µM tracer +/− 100 μM competing compound). To screen the library, a BioTek MultiFlo FX liquid dispenser was used to dispense 22.5 µL of tracer solution to the top 4 rows and 22.5 µL tracer + competing compound solution to the 4 bottom rows. Plates were briefly mixed on an orbital shaker and incubated for 1.5 h at room temperature. […]
(Bioluminescence resonance energy transfer reports proximity on the nanometre scale.)

Another assay deals with T2, P2RY13 (Homo sapiens, UniProt Q9BPV8).
T2 construct: purchased Promega (in-house HiBiT-GPCR construct library, NanoBRET)
T2 sequence (Q9BPV8 1-354): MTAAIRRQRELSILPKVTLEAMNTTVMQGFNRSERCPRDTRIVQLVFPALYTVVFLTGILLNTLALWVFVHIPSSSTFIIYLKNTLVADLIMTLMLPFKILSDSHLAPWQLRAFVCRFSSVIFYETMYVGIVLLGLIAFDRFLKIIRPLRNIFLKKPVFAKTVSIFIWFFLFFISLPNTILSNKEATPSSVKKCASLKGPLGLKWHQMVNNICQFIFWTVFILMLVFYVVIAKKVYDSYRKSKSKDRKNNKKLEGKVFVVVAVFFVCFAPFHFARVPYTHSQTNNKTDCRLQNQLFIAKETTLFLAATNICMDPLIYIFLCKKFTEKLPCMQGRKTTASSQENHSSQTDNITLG
The assay can be described thus: NanoBRET screen HiBiT-P2RY13 in HEK293. As to the method: as §1, §2

A further assay deals with T3, GALR1 (Homo sapiens, UniProt P47211).
T3 construct: purchased Promega (in-house HiBiT-GPCR construct library, NanoBRET)
T3 sequence (P47211 1-349): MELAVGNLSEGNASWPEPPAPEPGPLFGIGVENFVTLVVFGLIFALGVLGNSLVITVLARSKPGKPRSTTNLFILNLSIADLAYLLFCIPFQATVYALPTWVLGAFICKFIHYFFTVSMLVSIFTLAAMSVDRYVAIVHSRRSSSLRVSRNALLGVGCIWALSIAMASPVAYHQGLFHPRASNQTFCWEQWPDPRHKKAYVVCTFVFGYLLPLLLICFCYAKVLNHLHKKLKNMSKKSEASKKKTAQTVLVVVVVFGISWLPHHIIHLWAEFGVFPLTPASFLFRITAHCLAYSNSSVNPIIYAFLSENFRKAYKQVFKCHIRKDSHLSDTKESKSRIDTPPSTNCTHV
Nature of the assay: NanoBRET screen HiBiT-GALR1 in HEK293. How it is done: as §1, §2

[1] abbreviates: tracer at 0.1μM, listed as amitriptyline-b-2-NB590.
The mark [2] stands for this setting: tracer at 1μM, listed as amitriptyline-b-2-NB590.

`COc1ccccc1N1CCN(CCCCN2C(=O)c3ccc(CNC(=O)CCOCCOCCOCCOCCNC(=O)CCc4ccc5n4[B-](F)(F)[N+]4=C(c6ccc[nH]6)C=CC4=C5)cc3C2=O)CC1` [NAN-190-2-NB590]: the “NanoBRET Fold Response” value at PTGER3 (PTGER3, tracer 0.1μM) is listed as 1.00; on PTGER3 (PTGER3, tracer 1μM), 1.02; at P2RY13 (P2RY13, tracer 0.1μM) it was 0.97; at P2RY13 (P2RY13, tracer 1μM), 1.04; at GALR1 (GALR1, tracer 0.1μM), 1.02.

On to `CC(C)N(CC[C@H](c1ccccc1)c1cc(CCNC(=O)c2ccc(CNC(=O)CCc3ccc4n3[B-](F)(F)[N+]3=C(c5ccc[nH]5)C=CC3=C4)cc2)ccc1O)C(C)C` [Tolterodine-BZ-NB590], for which the “NanoBRET Fold Response” value at PTGER3 (PTGER3, tracer 0.1μM) is reported as 0.99; on PTGER3 (PTGER3, tracer 1μM), 1.07; at P2RY13 (P2RY13, tracer 0.1μM), 0.89; on P2RY13 (P2RY13, tracer 1μM), 0.94; at GALR1 (GALR1, tracer 0.1μM), 0.95; on GALR1 (GALR1, tracer 1μM), 1.07.

As to `O=C(CCc1ccc2n1[B-](F)(F)[N+]1=C(c3ccc[nH]3)C=CC1=C2)NCCOCCOCCNC(=O)OCCOCCN1CCN(C2=Nc3ccccc3Sc3ccccc32)CC1` [Quetiapine-a-2-NB590], the “NanoBRET Fold Response” value at PTGER3 (PTGER3, tracer 0.1μM) worked out at 0.97; at PTGER3 (PTGER3, tracer 1μM), 1.04; on P2RY13 (P2RY13, tracer 0.1μM) it was 0.98; at P2RY13 (P2RY13, tracer 1μM), 0.95; on GALR1 (GALR1, tracer 0.1μM), 1.02; at GALR1 (GALR1, tracer 1μM), 0.76.

On to `CN1CCN(C2=Nc3cc(Cl)ccc3Nc3ccc(CNC(=O)CCOCCOCCOCCOCCNC(=O)CCc4ccc5n4[B-](F)(F)[N+]4=C(c6ccc[nH]6)C=CC4=C5)cc32)CC1` [Clozapine-b-2-NB590], for which the “NanoBRET Fold Response” value was determined as 0.97 at PTGER3 (PTGER3, 0.1μM tracer); 0.97 on PTGER3 (PTGER3, 1μM tracer); 1.02 at P2RY13 (P2RY13, 0.1μM tracer); 0.99 at P2RY13 (P2RY13, 1μM tracer); 0.99 at GALR1 (GALR1, 0.1μM tracer); 0.99 on GALR1 (GALR1, 1μM tracer).

For the molecule `CC(C)N(CC[C@H](c1ccccc1)c1cc(CCNC(=O)CCOCCOCCOCCOCCNC(=O)CCc2ccc3n2[B-](F)(F)[N+]2=C(c4ccc[nH]4)C=CC2=C3)ccc1O)C(C)C` [Tolterodine-2-NB590], the “NanoBRET Fold Response” value at PTGER3 (PTGER3, tracer 0.1μM) stood at 1.14; at PTGER3 (PTGER3, tracer 1μM), 0.99; at P2RY13 (P2RY13, tracer 0.1μM), 1.26; on P2RY13 (P2RY13, tracer 1μM) it was 1.28; on GALR1 (GALR1, tracer 0.1μM), 1.04; on GALR1 (GALR1, tracer 1μM) it was 0.99.

As for `Cc1cc2c(s1)Nc1ccccc1N=C2N1CCN(CCCNC(=O)CCOCCOCCOCCOCCNC(=O)CCc2ccc3n2[B-](F)(F)[N+]2=C(c4ccc[nH]4)C=CC2=C3)CC1` [Olanzapine-a-2-NB590], the “NanoBRET Fold Response” value is 1.00 on PTGER3 (PTGER3, tracer 0.1μM); 0.95 at PTGER3 (PTGER3, tracer 1μM); 1.09 at P2RY13 (P2RY13, tracer 0.1μM); 0.86 on P2RY13 (P2RY13, tracer 1μM); 1.03 on GALR1 (GALR1, tracer 0.1μM); 1.09 on GALR1 (GALR1, tracer 1μM).

Regarding `N#CN=C(NCCCOc1cccc(CN2CCCCC2)c1)NCCNC(=O)CCOCCOCCOCCOCCNC(=O)CCc1ccc2n1[B-](F)(F)[N+]1=C(c3ccc[nH]3)C=CC1=C2` [Aminopotentidine-2-NB590], the “NanoBRET Fold Response” value on PTGER3 (PTGER3, tracer 0.1μM) worked out at 1.01; on PTGER3 (PTGER3, tracer 1μM), 1.01; on P2RY13 (P2RY13, tracer 0.1μM) it was 0.97; on P2RY13 (P2RY13, tracer 1μM), 1.02; at GALR1 (GALR1, tracer 0.1μM) it was 1.02; on GALR1 (GALR1, tracer 1μM) it was 0.99.

As for `Cc1nc2n(c(=O)c1CCN1CCC(c3noc4cc(F)ccc34)CC1)CCCC2OC(=O)NCCOCCOCCOCCOCCNC(=O)CCc1ccc2n1[B-](F)(F)[N+]1=C(c3ccc[nH]3)C=CC1=C2` (centres unmarked) [Risperidone-2-NB590], the “NanoBRET Fold Response” value at PTGER3 (PTGER3, tracer 0.1μM) was determined as 0.94; on PTGER3 (PTGER3, tracer 1μM), 1.12; on P2RY13 (P2RY13, tracer 0.1μM), 1.03; at P2RY13 (P2RY13, tracer 1μM), 0.90; at GALR1 (GALR1, tracer 0.1μM) it was 1.00; on GALR1 (GALR1, tracer 1μM) it was 0.99.

Take `CN(C)CCC=C1c2ccccc2CCc2ccc(C(=O)NCCNC(=O)CCOCCOCCOCCOCCNC(=O)CCc3ccc4n3[B-](F)(F)[N+]3=C(c5ccc[nH]5)C=CC3=C4)cc21` [Amitriptyline-b-2-NB590]: the “NanoBRET Fold Response” value at PTGER3 (tracer at 0.1μM) was determined as 0.96; at PTGER3 (tracer at 1μM), 1.01; at P2RY13 (setting [1]), 1.08; at P2RY13 (setting [2]), 0.96; on GALR1 (setting [1]), 0.98; on GALR1 (setting [2]), 1.03.
